# Data taken from paper PMC10530652 (BME Frontiers, 2021).
# Key:
# [1] = tested on: MMP activity in ex vivo ventilated ovine lung; experiment: Ex vivo ovine lung model instilled with OPA supernatant, FCFM imaging; settings: marimastat 100 μM with OPA supernatant, 5 μM FIB One
# Method: Ovine pulmonary adenocarcinoma (OPA) tissue was homogenised using a drill homogeniser, followed by lysis in cell lysis buffer. The supernatant was collected following centrifugation at 12,000 rpm for 20 min. The samples were adjusted to 1 mg mL^-1 total protein (determined by a Pierce BCA Total Protein Assay Kit (Thermo Fisher Scientific)). Zymography (as described above) was performed to confirm MMP activity across multiple OPA samples. Recombinant MMP-9 (2 nM) and recombinant pro-MMP-9 (0.5 nM) were included in the assay as positive controls. […] Following >30 min, the segments were bronchoscopically identified and microdosed with 5 μM FIB One in 1 mL. FCFM imaging was undertaken pre- and postinstillation (Cellvizio®, Mauna Kea Technologies). This was performed by passing a FCFM fibre into the disparate bronchopulmonary segments (up to 5 passes per bronchopulmonary segment to capture a regional representation of fluorescence), recording images at 12 frames per second and imaging for up to 5 minutes. Videos were analysed as described above. Each experimental set was normalised to the control segment (segment with 1 mL 0.9% NaCl instilled) which represents intrinsic autofluorescence.
# [2] = biological target: T1, MMP-9 (Homo sapiens, UniProt P14780); experiment: In vitro enzymatic validation of FIB One with recombinant MMP-9 (plate reader); format: biochemical; settings: marimastat 20 μM, enzyme pre-incubated 30 min at 37°C, FIB One 1 μM, MMP 30 nM
# T1 construct: recombinant MMPs (Enzo Life Sciences) (active domains of MMP-1, MMP-2, MMP-3, MMP-7, MMP-8, MMP-9, MMP-10, MMP-11, MMP-12, and MMP-13); purchased Enzo Life Sciences
# T1 sequence (P14780 107-444 limits assumed): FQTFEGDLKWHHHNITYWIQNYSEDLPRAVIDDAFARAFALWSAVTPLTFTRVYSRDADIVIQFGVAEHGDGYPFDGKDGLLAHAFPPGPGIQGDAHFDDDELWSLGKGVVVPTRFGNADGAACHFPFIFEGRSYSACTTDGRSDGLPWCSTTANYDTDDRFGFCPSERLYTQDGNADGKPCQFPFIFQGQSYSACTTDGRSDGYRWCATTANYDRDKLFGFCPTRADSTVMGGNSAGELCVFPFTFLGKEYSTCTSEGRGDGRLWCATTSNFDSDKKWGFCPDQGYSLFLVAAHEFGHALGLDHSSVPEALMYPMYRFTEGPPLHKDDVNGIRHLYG
# Method: (§1) To determine the enzymatic specificity of FIB One, the probe was incubated at a concentration of 1 μM (unless otherwise stated) with the recombinant MMPs (Enzo Life Sciences) (active domains of MMP-1, MMP-2, MMP-3, MMP-7, MMP-8, MMP-9, MMP-10, MMP-11, MMP-12, and MMP-13, all at 30 nM), thrombin (Sigma Aldrich) (5 U/mL), factor Xa (Sigma Aldrich) (500 nM), plasmin (Sigma Aldrich) (30 nM), and human neutrophil elastase (30 nM). Where appropriate, enzymes were incubated with specific inhibitors for 30 min at 37°C prior to addition of FIB One. […] Enzyme free reactions served as a control. Enzymatic reactions were performed in MMP buffer (10 mM CaCl2, 6.1 g Tris-HCl, 8.6 g NaCl per litre, pH 7.5) in a final volume of 20 μL. Reactions were performed in duplicate in 384-well plates (Life Technologies) with optically clear plate seals (Thermo Scientific) and repeated thrice (independently). Fluorescence signal was measured for up to 60 min, ex/em 485/528 nm using microplate reader (BioTek Synergy H1 multimode reader). Data were normalised to buffer alone and are presented as fold-change in signal (relative fluorescent units, RFU) compared to enzyme-free controls. Data were plotted using Prism 7 (GraphPad Software Inc., La Jolla, CA, USA).
# [3] = tested on: primary human lung tissue; experiment: Ex vivo fibre-based (FCFM) imaging of human lung tissue with FIB One; settings: marimastat 100 μM, FIB One 1 μM, 10 min, n=9, P=0.0215
# Method: Human lung tissue samples (lung tumour and noncancerous adjacent tissue) were obtained following surgical resection and stored at -80° C until use. Processing for multiwell plate reader assay or zymography analysis was conducted as follows: 1 mm×4 mm sections were homogenised in 400 μL MMP buffer in Precellys 2.8 mm ceramic bead tubes (VWR) using a Pecellys 24 homogeniser. Homogenised tissue was adjusted to 4 mg mL^-1 protein (determined by a Pierce BCA Total Protein Assay Kit (Thermo Fisher Scientific), following the manufacturer’s instructions). Multiwell plate reader assays were performed as previously described, replacing the MMP buffer and MMP enzymes for the homogenised and protein-adjusted lung tissue.
# For ex vivo imaging, human lung tissue was sliced into 1 mm×4 mm sections and placed in the wells of a 96-well plate with 100 μL of MMP buffer and 30 nM MMP-13. […] The fluorescence for each sample was calculated by determining the average fluorescence per frame for each time point. […] Five independent patient specimens were collected and analysed. RFUs collected from off-target frames (showing motion artefact or absence of any fluorescence) were omitted during analysis.
# [4] = biological target: T2, MMP-2 (Homo sapiens, UniProt P08253); experiment: In vitro enzymatic validation of FIB One with recombinant MMP-2 (plate reader); format: biochemical; settings: marimastat 20 μM, enzyme pre-incubated 30 min at 37°C, FIB One 1 μM, MMP 30 nM
# T2 construct: recombinant MMPs (Enzo Life Sciences) (active domains of MMP-1, MMP-2, MMP-3, MMP-7, MMP-8, MMP-9, MMP-10, MMP-11, MMP-12, and MMP-13); purchased Enzo Life Sciences
# T2 sequence (P08253 110-446 limits assumed): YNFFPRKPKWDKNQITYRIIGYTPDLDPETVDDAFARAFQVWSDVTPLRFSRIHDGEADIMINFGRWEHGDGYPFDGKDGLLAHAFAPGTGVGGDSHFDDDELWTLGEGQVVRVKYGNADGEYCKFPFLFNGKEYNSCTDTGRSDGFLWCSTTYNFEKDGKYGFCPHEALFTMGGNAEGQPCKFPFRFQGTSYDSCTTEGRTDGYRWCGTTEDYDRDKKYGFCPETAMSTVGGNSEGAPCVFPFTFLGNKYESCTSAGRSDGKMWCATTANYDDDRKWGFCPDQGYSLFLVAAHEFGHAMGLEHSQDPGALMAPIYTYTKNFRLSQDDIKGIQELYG
# Method: as §1
# [5] = tested on: stimulated human neutrophils; experiment: FIB One cleavage in supernatant from stimulated neutrophils; format: cell-based; settings: coincubation with marimastat, FIB One 1 μM, 10 min
# Method: Neutrophils were isolated from the blood of healthy human volunteers as previously described. The number of retrieved neutrophils was determined with NucleoCounter NC-1000 (Chemo Metec). Neutrophils were resuspended at a concentration of 20×10^6 mL^-1 in 0.9% NaCl with 0.9 mM CaCl2. Cells were incubated for 30 min at 37°C. Cells to be stimulated were subsequently activated with 5 μM calcium ionophore A23187 (Tocris Bioscience) for 30 min at 37°C. Neutrophils were harvested by centrifugation at 400 x g for 5 min. Supernatants were removed and stored. Plate reader assays were performed as described above, with the MMP buffer replaced with neutrophil supernatant. All experiments were carried out in duplicate using three independent donors (one donor per independent repeat). Data were normalised by background subtraction of intrinsic fluorescence.
# [6] = supernatant from stimulated (5 μM calcium ionophore A23187) neutrophils; settings: human, up to 10 minutes
Compound,FIB One signal in inhibitor-dosed segments [1],inhibition of FIB One activation [2],inhibition of FIB One cleavage [3],inhibition of FIB One activation [4],inhibition of FIB One cleavage [5],fragment found [6]
"CNC(=O)[C@@H](NC(=O)[C@H](CC(C)C)[C@H](O)C(=O)NO)C(C)(C)C [marimastat, reference compound]",did not show an increase in FIB One signal,blocked,cleavage inhibition observed,blocked,cleavage inhibition observed,–
FAM-PEG2-Pro-Phe-Gly-Nle-Lys-βAla-Lys(MethylRed)-PEG2-(D)Lys-PEG2-(D)Lys,–,–,–,–,–,"peak at 823 Da, 10 min"
